According to patent US6645774B1 (Synaptic Pharmaceutical Corporation, priority 1994, dated 2003):
Counter-ions that a name gives are not always drawn. Like-named read-outs stand apart in the source and are kept apart here.

Tests used:
[1] = target: human Y1 receptor (Homo sapiens, UniProt P25929); assay: ^125I-PYY binding of compounds to human Y1 receptor, stably transfected cells
Protocol: (§1) To prepare membranes from baculovirus infected cells, 2×10^7 Sf21 cells were grown in 150 mm tissue culture dishes and infected with a high-titer stock of hY5BB3.

[2] = target: T1, human Y4 receptor (Homo sapiens, UniProt P50391); assay: ^125I-PYY binding of compounds to human Y4 receptor, stably transfected cells
Protocol: as §1

[3] = target: T2, human Y2 receptor (Homo sapiens, UniProt P49146); assay: ^125I-PYY binding of compounds to human Y2 receptor, stably transfected cells
T2 sequence (P49146 1-381): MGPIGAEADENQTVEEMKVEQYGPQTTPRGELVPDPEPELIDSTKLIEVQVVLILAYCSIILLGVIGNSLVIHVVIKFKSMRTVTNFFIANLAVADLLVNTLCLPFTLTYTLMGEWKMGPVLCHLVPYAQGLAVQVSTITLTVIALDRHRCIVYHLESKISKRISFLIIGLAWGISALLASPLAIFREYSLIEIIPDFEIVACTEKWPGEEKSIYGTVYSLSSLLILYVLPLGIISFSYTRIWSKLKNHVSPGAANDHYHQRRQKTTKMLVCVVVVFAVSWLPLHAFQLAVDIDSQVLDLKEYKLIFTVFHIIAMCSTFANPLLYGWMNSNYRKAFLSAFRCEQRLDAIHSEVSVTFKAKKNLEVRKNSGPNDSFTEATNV
Protocol: as §1

[4] = target: T2, human Y2 receptor; assay: ^125I-PYY binding to cloned human Y2 receptor (COS-7 membranes); details: cloned human Y-type receptors; expression system not given
[5] = target: T3, rat Y2 receptor (Rattus norvegicus, UniProt Q9ERC0); assay: Antagonism of NPY- or PP-induced activation of rat Y2 receptors; format: cell-based; design: expressed in transfected cells; details: rat Y2, concentrations up to 1 μM
[6] = target: T3, rat Y2 receptor; assay: ^125I-PYY binding to cloned rat Y2 receptor (COS-7 membranes); details: cloned rat Y-type receptors; expression system not given
[7] = target: canine Y5 receptor; assay: Porcine ^125I-PYY binding to canine Y5 receptor (COS-7 membranes); details: COS-7 transient, Table 20 prints no unit, nM
[8] = target: T1, human Y4 receptor; assay: ^125I-PYY binding to cloned human Y4 receptor (COS-7 membranes); details: cloned human Y-type receptors; expression system not given
[9] = target: rat Y4 receptor (Rattus norvegicus, UniProt Q63447); assay: ^125I-PYY binding to cloned rat Y4 receptor (COS-7 membranes); details: cloned rat Y-type receptors; expression system not given
[10] = target: human 5HT2 receptor (Homo sapiens, UniProt P28223); assay: Cross-reactivity binding, human 5HT2 receptor
[11] = target: human 5HT1E receptor (Homo sapiens, UniProt P28566); assay: Cross-reactivity binding, human 5HT1E receptor; details: for Receptor (pKi) 5HT1E: cloned human receptor
[12] = target: 5HT1a (Homo sapiens, UniProt P08908); assay: Cross-reactivity binding, human 5HT1a receptor
[13] = target: 5HT1D2 (Homo sapiens, UniProt P28222); assay: Cross-reactivity binding, human 5HT1D2 receptor; details: for Receptor (pKi) 5HT1D2: cloned human receptor
[14] = target: human dopamine D3 receptor (Homo sapiens, UniProt P35462); assay: Cross-reactivity binding, human dopamine D3 receptor
[15] = target: T4, human 5HT1F receptor (Homo sapiens, UniProt P30939); assay: Cross-reactivity binding, human 5HT1F receptor; details: for Receptor (pKi) 5HT1F: cloned human receptor
T4 sequence (P30939 1-366): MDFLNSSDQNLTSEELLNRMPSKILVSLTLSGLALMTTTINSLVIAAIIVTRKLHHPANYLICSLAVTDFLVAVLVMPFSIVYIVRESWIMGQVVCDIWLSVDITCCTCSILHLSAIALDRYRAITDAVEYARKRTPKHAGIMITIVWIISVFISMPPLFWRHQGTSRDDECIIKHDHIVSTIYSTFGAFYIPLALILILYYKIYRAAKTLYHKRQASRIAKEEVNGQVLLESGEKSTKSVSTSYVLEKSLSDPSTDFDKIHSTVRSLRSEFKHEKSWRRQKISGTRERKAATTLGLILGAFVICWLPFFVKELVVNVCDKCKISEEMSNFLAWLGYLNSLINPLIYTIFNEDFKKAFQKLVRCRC

[16] = target: human α2C adrenergic receptor (Homo sapiens, UniProt P18825); assay: Cross-reactivity binding, cloned human α2c receptor
[17] = target: human 5HT1Dα receptor (Homo sapiens, UniProt P28221); assay: Cross-reactivity binding, human 5HT1Dα receptor; details: for Receptor (pKi) 5HT1Dα: cloned human receptor
[18] = target: human 5-HT7 receptor (Homo sapiens, UniProt P34969); assay: Cross-reactivity binding, human 5-HT7 receptor
[19] = target: human α2A adrenergic receptor (Homo sapiens, UniProt P08913); assay: Cross-reactivity binding, cloned human α2a receptor
[20] = target: human α1a adrenergic receptor (Homo sapiens, UniProt P35348); assay: Cross-reactivity binding, cloned human α1a receptor
[21] = target: human α1b adrenergic receptor (Homo sapiens, UniProt P35368); assay: Cross-reactivity binding, cloned human α1b receptor
[22] = target: human α2B adrenergic receptor (Homo sapiens, UniProt P18089); assay: Cross-reactivity binding, cloned human α2b receptor
[23] = target: human α1d adrenergic receptor (Homo sapiens, UniProt P25100); assay: Cross-reactivity binding, cloned human α1d receptor
[24] = test system: satiated rats; assay: NPY-induced food intake in satiated rats; format: in vivo, rat; details: 300 pmole i.c.v., p<0.05 Student-Newman-Keuls
Protocol: For these determinations food intake may be measured in normal satiated rats after intracerebroventricular application (i.c.v.) of NPY in the presence or absence of the test compound. Male Sprague Dawley rats (Ciba-Geigy AG, Sisseln, Switzerland) weighing between 180 g and 220 g are used for all experiments. The rats are individually housed in stainless steel cages and maintained on an 11:13 h light-dark cycle (lights off at 18:00 h) at a controlled temperature of 21-23° C. at all times. Water and food (NAFAG lab chow pellets NAFAG, Gossau, Switzerland) are available ad libidum.
Rats under pentobarbital anesthesia are stereotaxically implanted with a stainless steel guide cannula targeted at the right lateral ventricle. Stereotaxic coordinates, with the incisor bar set −2.0 mm below interaural line, are: −0.8 mm anterior and +1.3 mm lateral to bregma. The guide cannula is placed on the dura. […]
Food intake may be measured by placing preweighed pellets into the cages at the time of NPY injection. […] The food intake of animals treated with test compound may be calculated as a percentage of the food intake of control animals i.e., animals treated with vehicle. Alternatively, food intake for each group of animals subjected to a particular experimental condition may be expressed as the mean±S.E.M. Statistical analysis is performed by analysis of variance using the Student-Newman-Keuls test.

5HT1D2, sequence (P28222 whole entry): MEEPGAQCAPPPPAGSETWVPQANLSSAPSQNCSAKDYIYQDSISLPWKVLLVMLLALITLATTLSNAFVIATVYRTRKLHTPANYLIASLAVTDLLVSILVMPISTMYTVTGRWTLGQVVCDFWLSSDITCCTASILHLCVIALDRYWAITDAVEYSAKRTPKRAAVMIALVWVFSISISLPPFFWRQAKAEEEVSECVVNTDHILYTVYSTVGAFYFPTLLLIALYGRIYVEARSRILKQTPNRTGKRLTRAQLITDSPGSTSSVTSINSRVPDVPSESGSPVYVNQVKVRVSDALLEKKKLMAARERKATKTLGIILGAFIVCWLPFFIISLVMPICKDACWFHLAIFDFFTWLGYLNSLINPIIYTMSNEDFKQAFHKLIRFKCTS
human 5HT1Dα receptor, sequence (P28221 whole entry): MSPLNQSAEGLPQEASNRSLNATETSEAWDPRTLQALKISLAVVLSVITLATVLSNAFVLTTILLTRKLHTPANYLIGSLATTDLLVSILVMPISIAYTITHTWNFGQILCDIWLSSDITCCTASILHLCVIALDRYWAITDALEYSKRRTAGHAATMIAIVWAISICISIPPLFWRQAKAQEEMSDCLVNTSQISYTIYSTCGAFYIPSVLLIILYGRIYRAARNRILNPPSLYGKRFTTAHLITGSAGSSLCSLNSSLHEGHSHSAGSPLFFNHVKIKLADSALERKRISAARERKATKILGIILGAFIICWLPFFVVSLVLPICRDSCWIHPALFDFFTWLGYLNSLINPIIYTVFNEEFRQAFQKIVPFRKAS
T1 sequence (P50391 whole entry): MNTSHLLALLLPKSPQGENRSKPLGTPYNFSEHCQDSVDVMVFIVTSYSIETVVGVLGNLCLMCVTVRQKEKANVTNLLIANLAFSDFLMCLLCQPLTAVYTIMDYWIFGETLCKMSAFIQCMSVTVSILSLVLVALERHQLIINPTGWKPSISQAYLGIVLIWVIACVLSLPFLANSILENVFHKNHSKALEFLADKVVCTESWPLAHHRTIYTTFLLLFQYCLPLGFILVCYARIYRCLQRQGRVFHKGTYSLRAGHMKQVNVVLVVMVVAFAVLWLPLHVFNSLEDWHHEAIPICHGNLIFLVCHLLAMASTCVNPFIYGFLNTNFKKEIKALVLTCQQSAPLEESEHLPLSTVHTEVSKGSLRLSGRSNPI
human 5HT1E receptor, sequence (P28566 whole entry): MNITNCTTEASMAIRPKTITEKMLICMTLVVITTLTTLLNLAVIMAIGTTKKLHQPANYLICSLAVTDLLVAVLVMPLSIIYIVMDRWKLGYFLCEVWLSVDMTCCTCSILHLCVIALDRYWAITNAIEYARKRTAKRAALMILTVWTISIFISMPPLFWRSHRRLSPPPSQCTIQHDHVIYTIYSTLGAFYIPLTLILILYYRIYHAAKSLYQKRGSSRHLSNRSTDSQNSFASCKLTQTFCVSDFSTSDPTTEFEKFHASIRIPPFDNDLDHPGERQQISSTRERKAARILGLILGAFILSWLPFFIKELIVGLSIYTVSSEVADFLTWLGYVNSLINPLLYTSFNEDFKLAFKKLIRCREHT
human dopamine D3 receptor, sequence (P35462 whole entry): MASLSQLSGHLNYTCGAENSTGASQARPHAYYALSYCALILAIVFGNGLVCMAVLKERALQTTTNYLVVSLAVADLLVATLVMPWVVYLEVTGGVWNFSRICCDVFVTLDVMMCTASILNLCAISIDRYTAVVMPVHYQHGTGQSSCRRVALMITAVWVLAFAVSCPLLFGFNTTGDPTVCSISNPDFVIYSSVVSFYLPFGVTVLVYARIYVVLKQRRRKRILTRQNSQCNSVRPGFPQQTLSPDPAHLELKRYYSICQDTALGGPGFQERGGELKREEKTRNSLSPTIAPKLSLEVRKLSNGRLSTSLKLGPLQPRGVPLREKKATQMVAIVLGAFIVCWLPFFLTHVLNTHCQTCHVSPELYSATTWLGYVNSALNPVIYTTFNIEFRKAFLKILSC
5HT1a, sequence (P08908 whole entry): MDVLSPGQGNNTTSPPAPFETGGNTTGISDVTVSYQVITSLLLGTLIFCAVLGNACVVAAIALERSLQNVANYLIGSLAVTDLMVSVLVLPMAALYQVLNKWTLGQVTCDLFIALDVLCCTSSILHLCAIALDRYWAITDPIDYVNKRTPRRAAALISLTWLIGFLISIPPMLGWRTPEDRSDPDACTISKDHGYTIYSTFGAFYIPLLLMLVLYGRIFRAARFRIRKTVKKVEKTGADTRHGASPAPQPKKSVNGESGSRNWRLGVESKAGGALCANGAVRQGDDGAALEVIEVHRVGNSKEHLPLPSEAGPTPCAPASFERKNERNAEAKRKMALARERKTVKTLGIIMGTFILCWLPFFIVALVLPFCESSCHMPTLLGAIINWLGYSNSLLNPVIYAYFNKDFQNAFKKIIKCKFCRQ
T3 sequence (Q9ERC0 1-381): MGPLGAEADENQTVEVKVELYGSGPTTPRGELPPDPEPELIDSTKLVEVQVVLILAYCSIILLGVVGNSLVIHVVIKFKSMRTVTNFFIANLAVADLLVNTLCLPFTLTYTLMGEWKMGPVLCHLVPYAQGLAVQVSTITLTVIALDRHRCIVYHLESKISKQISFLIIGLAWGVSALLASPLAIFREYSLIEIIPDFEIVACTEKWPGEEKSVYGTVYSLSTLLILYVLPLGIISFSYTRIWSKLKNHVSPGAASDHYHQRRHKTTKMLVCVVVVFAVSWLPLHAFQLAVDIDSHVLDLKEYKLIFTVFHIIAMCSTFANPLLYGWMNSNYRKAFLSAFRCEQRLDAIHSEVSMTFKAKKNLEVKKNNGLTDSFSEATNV
human Y1 receptor, sequence (P25929 whole entry): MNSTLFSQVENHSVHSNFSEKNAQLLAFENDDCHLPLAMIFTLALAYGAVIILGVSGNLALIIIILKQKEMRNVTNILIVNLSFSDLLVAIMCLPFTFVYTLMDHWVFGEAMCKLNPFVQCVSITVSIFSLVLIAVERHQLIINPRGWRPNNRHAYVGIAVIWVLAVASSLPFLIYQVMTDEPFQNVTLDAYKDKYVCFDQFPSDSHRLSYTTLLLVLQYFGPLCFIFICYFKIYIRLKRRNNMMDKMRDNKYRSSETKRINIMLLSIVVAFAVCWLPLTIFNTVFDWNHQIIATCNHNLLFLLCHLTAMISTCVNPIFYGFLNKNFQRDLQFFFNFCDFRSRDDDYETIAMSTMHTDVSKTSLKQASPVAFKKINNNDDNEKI
human 5HT2 receptor, sequence (P28223 whole entry): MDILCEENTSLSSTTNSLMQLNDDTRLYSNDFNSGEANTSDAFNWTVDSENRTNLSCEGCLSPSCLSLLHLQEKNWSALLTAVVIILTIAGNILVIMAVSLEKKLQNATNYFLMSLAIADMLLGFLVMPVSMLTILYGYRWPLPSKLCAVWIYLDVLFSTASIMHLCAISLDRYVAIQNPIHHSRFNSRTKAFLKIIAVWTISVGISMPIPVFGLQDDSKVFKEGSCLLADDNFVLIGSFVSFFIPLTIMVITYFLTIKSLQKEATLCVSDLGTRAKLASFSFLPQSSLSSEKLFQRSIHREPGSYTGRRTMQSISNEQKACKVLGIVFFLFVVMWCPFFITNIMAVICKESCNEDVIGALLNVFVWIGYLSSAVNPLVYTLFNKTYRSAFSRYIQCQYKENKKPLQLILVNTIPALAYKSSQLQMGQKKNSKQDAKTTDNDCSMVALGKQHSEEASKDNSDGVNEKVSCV
human α2C adrenergic receptor, sequence (P18825 whole entry): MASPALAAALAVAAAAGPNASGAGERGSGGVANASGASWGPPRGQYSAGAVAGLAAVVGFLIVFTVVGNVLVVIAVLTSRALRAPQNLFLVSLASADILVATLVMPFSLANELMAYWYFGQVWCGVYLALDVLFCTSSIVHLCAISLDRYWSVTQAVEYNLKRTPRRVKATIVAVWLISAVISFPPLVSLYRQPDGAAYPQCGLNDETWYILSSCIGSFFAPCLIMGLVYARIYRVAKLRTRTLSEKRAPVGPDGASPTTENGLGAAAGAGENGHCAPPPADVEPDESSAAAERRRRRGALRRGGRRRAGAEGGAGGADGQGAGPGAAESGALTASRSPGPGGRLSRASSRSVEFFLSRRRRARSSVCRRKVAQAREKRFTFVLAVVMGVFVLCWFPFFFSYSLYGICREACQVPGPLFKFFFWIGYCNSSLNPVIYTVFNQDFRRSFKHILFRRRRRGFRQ
human α1b adrenergic receptor, sequence (P35368 whole entry): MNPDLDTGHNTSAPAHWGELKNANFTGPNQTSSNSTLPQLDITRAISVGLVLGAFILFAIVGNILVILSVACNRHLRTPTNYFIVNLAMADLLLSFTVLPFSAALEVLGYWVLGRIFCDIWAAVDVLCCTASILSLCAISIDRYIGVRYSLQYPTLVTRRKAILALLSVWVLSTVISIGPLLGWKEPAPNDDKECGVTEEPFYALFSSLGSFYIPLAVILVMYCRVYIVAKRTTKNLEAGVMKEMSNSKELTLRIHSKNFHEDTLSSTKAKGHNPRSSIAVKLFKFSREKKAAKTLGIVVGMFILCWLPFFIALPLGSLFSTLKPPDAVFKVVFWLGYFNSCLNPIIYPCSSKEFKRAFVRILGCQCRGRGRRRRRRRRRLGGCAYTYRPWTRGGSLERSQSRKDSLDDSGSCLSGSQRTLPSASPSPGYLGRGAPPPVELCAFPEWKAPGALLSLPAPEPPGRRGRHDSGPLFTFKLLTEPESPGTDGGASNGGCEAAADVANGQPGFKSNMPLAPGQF
rat Y4 receptor, sequence (Q63447 whole entry): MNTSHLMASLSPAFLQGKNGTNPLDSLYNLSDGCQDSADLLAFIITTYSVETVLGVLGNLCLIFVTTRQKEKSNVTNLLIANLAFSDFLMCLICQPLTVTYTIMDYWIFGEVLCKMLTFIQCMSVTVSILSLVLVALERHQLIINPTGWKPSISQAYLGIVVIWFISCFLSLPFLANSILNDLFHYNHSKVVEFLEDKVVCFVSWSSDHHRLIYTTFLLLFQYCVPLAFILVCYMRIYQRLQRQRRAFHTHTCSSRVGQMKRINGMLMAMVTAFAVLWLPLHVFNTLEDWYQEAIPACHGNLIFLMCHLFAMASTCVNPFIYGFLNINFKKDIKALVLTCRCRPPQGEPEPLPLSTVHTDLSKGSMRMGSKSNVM

How did the Ki ([1]; read-out: Binding Affinity (Ki (nM) vs. ^125I-PYY) Human Receptor Y1, stably transfected 293 or LM(tk-) cells, compound 1 also COS-7 data) turn out when “2-(Naphthalen-1-yl)-3-phenylpropane-1,2-diamine [Compound 28]” was run?
Its Ki is over 100000 nM.

What about the Ki ([2]; read-out: Binding Affinity (Ki (nM) vs. ^125I-PYY) Human Receptor Y4, stably transfected cells) of the same compound?
Its Ki is over 100000 nM.

And the Ki ([3]; read-out: Binding Affinity (Ki (nM) vs. ^125I-PYY) Human Receptor Y2, stably transfected 293 or LM(tk-) cells, compound 1 also COS-7 data)?
The Ki was over 75000 nM.

What does the source list for `NC(N)=NCCC[C@@H](NC(=O)C(c1ccccc1)c1ccccc1)C(=O)NCc1ccc(O)cc1` [BIBP 3226]?
Ki [4]: 6.9 µM; antagonism of NPY- or PP-induced activation [5]: no evidence for antagonism; Ki [6]: 66 µM; Ki [7]: 17000 nM; Ki [8]: 8 µM; Ki [9]: 420 nM

`Cl.c1ccc(Nc2nc(Nc3ccccc3)c3ccccc3n2)cc1` [Compound 1, 2,4-Diphenylamino-quinazoline Hydrochloride] was tested. Which Ki [10] did it give?
The Ki was 457 nM.

And the “Receptor (pKi) 5HT1E” value [11]?
Its value is 5.30.

What about the Ki [12] of the same compound?
Its Ki is 30.9 µM.

What about the “Receptor (pKi) 5HT1D2” value [13] of the same compound?
The value was 5.30.

And the Ki [14]?
Its Ki is 2040 nM.

And the “Receptor (pKi) 5HT1F” value [15]?
The value was 5.30.

For `Cl.Nc1nc(NC[C@H]2CC[C@H](CNS(=O)(=O)c3cccc4ccccc34)CC2)nc2ccccc12` [Compound 5, trans-Naphthalene-1-sulfonic Acid {4-[(4-amino-quinazolin-2-ylamino)-methyl]-cyclohexylmethyl}-amide Hydrochloride], which Ki ([10]; cloned human receptor, read-out: Receptor (pKi) 5HT2 (converted)) is on record?
The Ki was 389 nM.

What about the “Receptor (pKi) 5HT1E” value [11] of the same compound?
The value was 5.30.

And the Ki ([12]; cloned human receptor, read-out: Receptor (pKi) 5HT1a (converted))?
The Ki was 0.468 µM.

And the Ki ([14]; cloned human receptor, read-out: Receptor (pKi) D3 (converted))?
Its Ki is 57.5 nM.

What about the “Receptor (pKi) 5HT1F” value [15] of the same compound?
Its value is 5.30.

For `Cl.Cl.c1ccc(Nc2nc(Nc3ccc(N4CCCCC4)cc3)nc3ccccc23)cc1` [Compound 6, 2-[4-(Piperidin-1-yl)-phenylamino]-4-phenylamino-quinazoline Dihydrochloride], which “Receptor (pKi) 5HT1E” value [11] is on record?
Its value is 5.30.

What about the “Receptor (pKi) 5HT1D2” value [13] of the same compound?
The value was 5.30.

And the Ki [16]?
The Ki was 437 nM.

And the “Receptor (pKi) 5HT1Dα” value [17]?
Its value is 5.30.

What about the “Receptor (pKi) 5HT1F” value [15] of the same compound?
Its value is 5.30.

With `CC(=O)O[C@H]1CC[C@H](Nc2nc(Nc3ccccc3)c3ccccc3n2)CC1` [Compound 7, trans-2-(4-Acetoxy-cyclohexylamino)-4-phenylamino-quinazoline Hydrochloride] as the compound, how does the Ki [11] read?
The Ki was 5.01 µM.

What about the Ki [13] of the same compound?
Its Ki is 5.01 µM.

And the Ki [18]?
Its Ki is 229 nM.

What about the Ki [16] of the same compound?
The Ki was 141 nM.

What about the Ki [19] of the same compound?
The Ki was 69.2 nM.

And the Ki [20]?
Its Ki is 871 nM.

What about the Ki [17] of the same compound?
The Ki was 1410 nM.

What about the Ki [1] of the same compound?
Its Ki is 2170 nM.

What about the Ki [21] of the same compound?
The Ki was 832 nM.

And the Ki [2]?
Its Ki is 7050 nM.

What about the Ki [22] of the same compound?
Its Ki is 813 nM.

And the Ki [15]?
Its Ki is 5.01 µM.

What about the Ki [23] of the same compound?
The Ki was 347 nM.

And the Ki [3]?
Its Ki is 2870 nM.

For `COc1ccc(Nc2nc(Nc3ccccc3)c3cccc(OC)c3n2)cc1.Cl` [Compound 9, 8-Methoxy-2-(4-methoxy-phenylamino)-4-phenylamino-quinazoline Hydrochloride], which “Receptor (pKi) 5HT1E” value [11] is on record?
The value was 5.30.

And the “Receptor (pKi) 5HT1D2” value [13]?
Its value is 5.30.

What about the “Receptor (pKi) 5HT1Dα” value [17] of the same compound?
The value was 5.30.

What about the “Receptor (pKi) 5HT1F” value [15] of the same compound?
The value was 5.30.

And the Ki [3]?
Its Ki is over 100000 nM.

Which results are given for `CNS(=O)(=O)Cc1ccc(Nc2nc(Nc3ccccc3)c3cc(OC)ccc3n2)cc1.Cl` [Compound 10, N-Methyl-[4-(6-methoxy-4-phenylamino-quinazolin-2-ylamino)-phenyl]-methanesulfonamide Hydrochloride]?
Receptor (pKi) 5HT1E [11]: 5.30; Receptor (pKi) 5HT1D2 [13]: 5.30; Receptor (pKi) 5HT1Dα [17]: 5.30; Receptor (pKi) 5HT1F [15]: 5.30; Ki [3]: > 100000 nM

How did the “Receptor (pKi) 5HT1E” value [11] turn out when `CNS(=O)(=O)Cc1ccc(Nc2nc(Nc3ccccc3)c3ccccc3n2)cc1.Cl` [Compound 11, N-Methyl-[4-(4-phenylamino-quinazolin-2-ylamino)-phenyl]-methanesulfonamide Hydrochloride] was run?
The value was 5.30.

What about the “Receptor (pKi) 5HT1D2” value [13] of the same compound?
The value was 5.30.

And the “Receptor (pKi) 5HT1Dα” value [17]?
Its value is 5.30.

And the “Receptor (pKi) 5HT1F” value [15]?
Its value is 5.30.

And the Ki [3]?
The Ki was over 100000 nM.

`Cl.O=S(=O)(NC[C@H]1CC[C@H](CNCC2CCc3ccccc3C2)CC1)c1cccc2ccccc12` (some centres unmarked) [Compound 19] was tested. Which “Receptor (pKi) 5HT1E” value [11] did it give?
Its value is 5.30.

What about the “Receptor (pKi) 5HT1D2” value [13] of the same compound?
Its value is 5.30.

And the “Receptor (pKi) 5HT1F” value [15]?
The value was 5.30.

What does the source list for `Cl.O=[N+]([O-])c1ccccc1S(=O)(=O)NC[C@H]1CC[C@H](CNCC2CCc3ccccc3C2)CC1` (some centres unmarked) [Compound 20]?
Receptor (pKi) 5HT1E [11]: 5.30; Receptor (pKi) 5HT1F [15]: 5.30

Which results are given for `O=S(=O)(NC[C@H]1CC[C@H](CNC(CO)Cc2ccc(Cl)cc2)CC1)c1cccc2ccccc12` (stereo partly drawn) [Compound 25, Naphthalene-1-sulfonic Acid trans-(4-{[2-(4-Chlorophenyl)-1-hydroxymethyl-ethylamino]-methyl}cyclohexylmethyl)-amide]?
Ki [11]: 5.01 µM; Ki [15]: 5.01 µM

Which “effect on food intake vs vehicles” value [24] does the source give for “NPY: neuropeptide Y; porcine NPY, 300 pmole i.c.v., in the feeding studies” here?
Its value is “significantly induce food intake”.
